Holding throughout (format): cell-based
The subject of test [1] is Caki-2 cells. The test is described as follows: CTG (CellTiter-Glo) cell viability assay, Caki-2. Particulars: Caki-2, 3-day, read-out: CTG Chempartner/PHA- Caki-2 3-day: Average external-IC50. The essentials:
(§1)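 Cells seeded at 10,000 per well, then exposed to a 9-point 1:3 dilution series from 10 µM top concentration (0.2% DMSO) for 3 days at 37 °C, 5% CO2. Viability measured by CellTiter-Glo luminescence; IC50 from a three-parameter logistic fit.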
Background: ATP-based viability assays read luminescence as a measure of living cells.

Test [2] has as its system MOLT-4 cells. The test can be described thus: CTG (CellTiter-Glo) cell viability assay, MOLT-4. As to conditions: MOLT-4, 3 day, read-out: CTG Cell Viability Assay - MOLT-4 3 day: Average external-IC50. The essentials: as §1
In test [3] the target is T1, BCL-XL (Homo sapiens, UniProt Q07817).
T1 construct: BCL-XL degradation results in MOLT-4 cells for compounds of the invention; endogenous in cells; host or cells: MOLT-4
The test can be described thus: BCL-XL degradation assay in MOLT-4 cells (ELISA, 6 h). As to conditions: for DC50: read-out: Bcl-xL ELISA in MOLT-4 degradation 6 h: External Abs-DC50. A general note: In an ELISA, binding on a coated surface is turned into a signal by an enzyme label.

Like-named read-outs stand apart in the source and are kept apart here.

Usually Dmax stands for the largest share of the target that was removed. A lower Dmax goes with shallow degradation. What is called DC50 is the concentration at which degradation of the target reaches its halfway point.

T1 sequence (Q07817 whole entry): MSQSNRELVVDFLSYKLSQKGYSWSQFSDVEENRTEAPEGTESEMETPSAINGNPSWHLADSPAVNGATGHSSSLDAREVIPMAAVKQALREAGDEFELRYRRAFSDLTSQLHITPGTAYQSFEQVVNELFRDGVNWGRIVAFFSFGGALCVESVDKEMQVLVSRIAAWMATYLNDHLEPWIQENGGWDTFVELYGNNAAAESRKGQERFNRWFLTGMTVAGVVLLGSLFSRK

On to `Cc1ncsc1-c1ccc([C@H](C)NC(=O)[C@@H]2C[C@@H](O)CN2C(=O)[C@@H](NC(=O)CCCCCC(=O)N2CCN(CCCNc3ccc(S(=O)(=O)NC(=O)c4ccc(N5CCC([C@@H](O)c6ccccc6-c6ccc(Cl)cc6)CC5)cc4Oc4cnc5[nH]ccc5c4)cc3S(=O)(=O)C(F)(F)F)CC2)C(C)(C)C)cc1` (single isomer, unassigned) [I-23], for which the IC50 in test [1] (Homo sapiens, CAKI-2, 72 h) is > 30000 nM. In addition, the IC50 in test [2] (Homo sapiens, MOLT-4, 72 h) lay in the range of 100 to 1000 nM. Moreover, in test [3], the maximal degradation (Dmax) was < 50% and the DC50 is 500 to 1000 nM.
In the same order, the values of `Cc1ncsc1-c1ccc([C@H](C)NC(=O)[C@@H]2C[C@@H](O)CN2C(=O)[C@@H](NC(=O)C2CCN(c3ccc(NC(=O)c4ccc(-c5ccc(Cl)cc5)c([C@H](O)C5CCN(c6ccc(C(=O)NS(=O)(=O)c7ccc(N[C@H](CCN(C)CCO)CSc8ccccc8)c(S(=O)(=O)C(F)(F)F)c7)cc6)CC5)c4)cc3)CC2)C(C)(C)C)cc1` (single isomer, unassigned) [I-27] are > 30000 nM, > 3000 nM, < 50% and 500 to 1000 nM.
On the same counts, the results for `C#Cc1ccc([C@H](C)NC(=O)[C@@H]2C[C@@H](O)CN2C(=O)[C@@H](NC(=O)CCCCCC(=O)N2CCN(CC[C@H](CSc3ccccc3)Nc3ccc(S(=O)(=O)NC(=O)c4ccc(N5CCC([C@@H](O)c6ccccc6-c6ccc(Cl)cc6)CC5)cc4)cc3S(=O)(=O)C(F)(F)F)CC2)C(C)(C)C)cc1` (single isomer, unassigned) [I-29] are 10000 to 30000 nM, 100 to 1000 nM, > 75% and 10 to 100 nM.
As to `C#Cc1ccc([C@H](C)NC(=O)[C@@H]2C[C@@H](O)CN2C(=O)[C@@H](NC(=O)CCCCCC(=O)N2CCN(CC[C@H](CSc3ccccc3)Nc3ccc(S(=O)(=O)NC(=O)c4ccc(N5CCC([C@H](O)c6ccccc6-c6ccc(Cl)cc6)CC5)cc4)cc3S(=O)(=O)C(F)(F)F)CC2)C(C)(C)C)cc1` (single isomer, unassigned) [I-33], the IC50 in test [1] (Homo sapiens, CAKI-2, 72 h) was > 30000 nM. In addition, the IC50 in test [2] (Homo sapiens, MOLT-4, 72 h) is 1000 to 3000 nM. For the same compound, in test [3], the Dmax fell in the range of 50 to 75% and the DC50 is 100 to 500 nM.
On the same counts, the results for `Cc1ncsc1-c1ccc([C@H](C)NC(=O)[C@@H]2C[C@@H](O)CN2C(=O)[C@@H](NC(=O)CCCCCC(=O)N2CCN(CCCNc3ccc(S(=O)(=O)NC(=O)c4ccc(N5CCC([C@H](O)c6ccccc6-c6ccc(Cl)cc6)CC5)cc4Oc4cnc5[nH]ccc5c4)cc3S(=O)(=O)C(F)(F)F)CC2)C(C)(C)C)cc1` (single isomer, unassigned) [I-38] are > 30000 nM, 100 to 1000 nM, 50 to 75% and 100 to 500 nM.
In the same order, the values of `Cc1ncsc1-c1ccc([C@H](C)NC(=O)[C@@H]2C[C@@H](O)CN2C(=O)[C@@H](NC(=O)CCCC(=O)N2CCN(CCCNc3ccc(S(=O)(=O)NC(=O)c4ccc(N5CCC([C@H](O)c6ccccc6-c6ccc(Cl)cc6)CC5)cc4Oc4cnc5[nH]ccc5c4)cc3S(=O)(=O)C(F)(F)F)CC2)C(C)(C)C)cc1` (single isomer, unassigned) [I-60] are > 30000 nM, 1000 to 3000 nM, < 50% and 500 to 1000 nM.
In the case of `Cc1ncsc1-c1ccc([C@H](C)NC(=O)[C@@H]2C[C@@H](O)CN2C(=O)[C@@H](NC(=O)CCCCCC(=O)N2CCN(c3ccc(-c4ccc(Cl)cc4)c([C@H](O)C4CCN(c5ccc(C(=O)NS(=O)(=O)c6ccc(N[C@H](CCN(C)CCO)CSc7ccccc7)c(S(=O)(=O)C(F)(F)F)c6)cc5)CC4)c3)CC2)C(C)(C)C)cc1` (single isomer, unassigned) [I-113], the IC50 in test [1] (Homo sapiens, CAKI-2, 72 h) is > 30000 nM. In addition, the IC50 in test [2] (Homo sapiens, MOLT-4, 72 h) was 100 to 1000 nM. For the same compound, in test [3], the greatest degradation seen (Dmax) was > 75% and the 50% degradation concentration (DC50) is < 10 nM.
For the compound `Cc1ncsc1-c1ccc([C@H](C)NC(=O)[C@@H]2CC(O)CN2C(=O)[C@@H](NC(=O)CCCCCCC(=O)N2CCN(c3ccc(-c4ccc(Cl)cc4)c(CN4CCN(c5ccc(C(=O)NS(=O)(=O)c6ccc(N[C@H](CCN(C)C)CSc7ccccc7)c([N+](=O)[O-])c6)cc5)CC4)c3)CC2)C(C)(C)C)cc1` (some centres unmarked) [I-4], the IC50 was > 30000 nM in test [1] (Homo sapiens, CAKI-2, 72 h) and > 3000 nM in test [2] (Homo sapiens, MOLT-4, 72 h). This compound showed a Dmax in test [3] of 50 to 75%. The 50% degradation concentration (DC50) in test [3] lay in the range of 500 to 1000 nM.
In the same order, the values of `Cc1ncsc1-c1ccc([C@H](C)NC(=O)[C@@H]2C[C@@H](O)CN2C(=O)[C@@H](NC(=O)CCCCCCC(=O)N2CCN(Cc3ccc(-c4ccc(Cl)cc4)c(CN4CCN(c5ccc(C(=O)NS(=O)(=O)c6ccc(N[C@H](CCN(C)C)CSc7ccccc7)c([N+](=O)[O-])c6)cc5)CC4)c3)CC2)C(C)(C)C)cc1` [I-5] are > 30000 nM, 100 to 1000 nM, > 75% and 10 to 100 nM.
On the same counts, the results for `Cc1ncsc1-c1ccc([C@H](C)NC(=O)[C@@H]2C[C@@H](O)CN2C(=O)[C@@H](NC(=O)CCCCCCC(=O)N2CCN(C(=O)c3ccc(-c4ccc(Cl)cc4)c(CN4CCN(c5ccc(C(=O)NS(=O)(=O)c6ccc(N[C@H](CCN(C)C)CSc7ccccc7)c([N+](=O)[O-])c6)cc5)CC4)c3)CC2)C(C)(C)C)cc1` [I-6] are > 30000 nM, > 3000 nM, < 50% and 500 to 1000 nM.
As to `Cc1ncsc1-c1ccc([C@H](C)NC(=O)[C@@H]2C[C@@H](O)CN2C(=O)[C@@H](NC(=O)CCCCCC(=O)N2CCN(C[C@]3(C)CCC(c4ccc(Cl)cc4)=C(CN4CCN(c5ccc(C(=O)NS(=O)(=O)c6ccc(NCCCN7CCOCC7)c(S(=O)(=O)C(F)(F)F)c6)c(Oc6cnc7[nH]ccc7c6)c5)CC4)C3)CC2)C(C)(C)C)cc1` [I-132], the IC50 is > 30000 nM in test [1] and 100 to 1000 nM in test [2].
Turning to `COc1ccc(Oc2cc(N3CCN(CC4=C(c5ccc(Cl)cc5)CC(C)(C)CC4)CC3)ccc2C(=O)NS(=O)(=O)c2ccc(NCCCN3CCN(C(=O)CCCCCC(=O)N[C@H](C(=O)C4C[C@H](O)C[C@H]4C(=O)C[C@@H](C)c4ccc(-c5scnc5C)cc4)C(C)(C)C)CC3)c(S(=O)(=O)C(F)(F)F)c2)cc1` (some centres unmarked) [I-136], the IC50 in test [1] (Homo sapiens, CAKI-2, 72 h) is > 30000 nM; in test [2] (Homo sapiens, MOLT-4, 72 h), 100 to 1000 nM.
On the same counts, the results for `Cc1ncsc1-c1ccc([C@H](C)NC(=O)[C@@H]2C[C@@H](O)CN2C(=O)[C@@H](NC(=O)CCCCCCN2CCN(CCCNc3ccc(S(=O)(=O)NC(=O)c4ccc(N5CCN(CC6=C(c7ccc(Cl)cc7)CC(C)(C)CC6)CC5)cc4Oc4cnc5[nH]ccc5c4)cc3S(=O)(=O)C(F)(F)F)CC2)C(C)(C)C)cc1` [I-137] are > 30000 nM and < 100 nM.
On the same counts, the results for `C#Cc1ccc([C@H](C)NC(=O)[C@@H]2C[C@@H](O)CN2C(=O)[C@@H](NC(=O)CCCCCCC(=O)N2CCN(C[C@]3(C)CCC(c4ccc(Cl)cc4)=C(CN4CCN(c5ccc(C(=O)NS(=O)(=O)c6ccc(NCCCN7CCOCC7)c(S(=O)(=O)C(F)(F)F)c6)c(Oc6cnc7[nH]ccc7c6)c5)CC4)C3)CC2)C(C)(C)C)cc1` [I-138] are 10000 to 30000 nM and 100 to 1000 nM.
In the same order, the values of `C#Cc1ccc(C(CO)NC(=O)[C@@H]2C[C@@H](O)CN2C(=O)[C@@H](NC(=O)CCCCCCC(=O)N2CCN(C[C@]3(C)CCC(c4ccc(Cl)cc4)=C(CN4CCN(c5ccc(C(=O)NS(=O)(=O)c6ccc(NCCCN7CCOCC7)c(S(=O)(=O)C(F)(F)F)c6)c(Oc6cnc7[nH]ccc7c6)c5)CC4)C3)CC2)C(C)(C)C)cc1` (some centres unmarked) [I-139] are > 30000 nM and < 100 nM.

These data come from patent US20260092057A1, “BCL-XL/BCL-2 DEGRADERS AND USES THEREOF” (Kymera Therapeutics, Inc., priority 2022, published 2026).
